Assay results: patent publication US20210169992A1, “COMPOSITIONS AND METHODS FOR INHIBITING THE PRODUCTION OR ACTIVITY OF D-2HYDROXYGLUTARATE IN SUBJECTS AFFLICTED WITH CANCER” (President and Fellows of Harvard College, priority 2019, published 2021)
“Also recorded” adds a separate entry of the source.

What was measured:
Assay type in all cases: cell-based
GL261 cells = test: Mitochondrial membrane potential by TMRE staining in GL261 cells; conditions: cancer cells (GL261); FIG. 3
Method: Mitochondrial membrane potential was measured by TMRE staining in control, D-2HG, and L-2HG treated GL261 cells.

T cells [1] = test: TCA cycle metabolite levels after 48 hour treatment upon T cell activation; conditions: FIG. 2
Method: A 2 day treatment of 1 mM NMN was used as a positive control. *P<0.05, **P<0.01 (Student's t test and two-way ANOVA).

T cells [2] = test: Apoptosis by Annexin and PI staining; conditions: after 24 hours of treatment; FIG. 6
T cells [3] = test: Effector function and antigen specific killing assay, OT-1 T cells against B16 OVA+ or OVA− tumor cells
Description: Data were normalized to cell number. […] Data were normalized to cell number.

T cells [4] = test: T cell proliferation upon activation by Cell Trace Violet staining; conditions: different concentrations of D-2HG, FIG. 6
T cells [5] = test: Mitochondrial respiration / electron transport chain function in T cells; conditions: D-2HG treated T cells, stress conditions
Description: (§1) H2O2 and NAC were used as positive and negative controls, respectively. *P<0.05, **P<0.01, ***P<0.001, ****P<0.0001 (Two-way ANOVA).

T cells [6] = test: D-2HG uptake in T cells
Description: as §1

T cells [7] = test: Metabolite profiling during time course of T cell activation with and without D-2HG; conditions: T cells activated with vs without D-2HG; FIG. 1
Description: Log 2 fold change was normalized to the average levels of control group.

T cells [8] = test: ROS levels following 24 hour treatment; conditions: FIG. 7
Description: as §1

D2HGDH = biological target: T1, D2HGDH (Homo sapiens, UniProt Q8N465); test: Isotope tracing of uniformly carbon labeled D-2HG into the TCA cycle; conditions: FIG. 8
T1 construct: endogenous in cells
T1 sequence (Q8N465 14-521): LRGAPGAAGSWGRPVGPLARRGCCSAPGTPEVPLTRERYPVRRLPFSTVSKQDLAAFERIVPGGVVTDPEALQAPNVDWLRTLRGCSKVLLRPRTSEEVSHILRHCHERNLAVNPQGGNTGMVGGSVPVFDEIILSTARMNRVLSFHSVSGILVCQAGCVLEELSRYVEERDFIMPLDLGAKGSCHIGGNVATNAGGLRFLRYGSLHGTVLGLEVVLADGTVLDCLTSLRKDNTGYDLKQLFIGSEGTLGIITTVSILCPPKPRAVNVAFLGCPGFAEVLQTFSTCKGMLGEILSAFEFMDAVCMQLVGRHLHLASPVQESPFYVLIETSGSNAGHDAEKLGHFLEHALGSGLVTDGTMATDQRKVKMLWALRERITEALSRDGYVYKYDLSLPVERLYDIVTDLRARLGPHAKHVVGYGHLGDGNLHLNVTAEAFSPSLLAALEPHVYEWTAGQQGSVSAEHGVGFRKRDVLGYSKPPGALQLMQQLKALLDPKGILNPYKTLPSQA

T cells [9] = test: Mitochondrial membrane potential by TMRE staining in T cells; conditions: FIG. 4, FIG. 7
Description: as §1

O=C(O)CC[C@@H](O)C(=O)O [D-2HG, D-2hydroxyglutarate]
mitochondrial membrane potential (TMRE) (GL261 cells): mild effect on mitochondrial membrane potential
TCA cycle metabolite levels (T cells [1]): causes accumulation of TCA cycle metabolites
apoptosis (T cells [2]): promotes apoptosis
expression of effector markers (T cells [3]; D-2HG treated T cells): increased expression of effector markers
antitumor activity / killing by treated T cells (T cells [3]; T cells activated in presence of D-2HG, FIG. 9): reduced killing; also recorded: results in the generation of effector T cells with inferior antitumor activity
T cell proliferation (T cells [4]): slows down proliferation
ETC function (T cells [5]): ETC function is impaired under stress conditions
uptake by T cells (T cells [6]): is taken up by T cells
effect on T cell metabolism upon activation (T cells [7]): causes broad changes in T cell metabolism upon activation
ROS production (T cells [8]): increased ROS production
metabolism of D-2HG (D2HGDH): is metabolized by D2HGDH
mitochondrial membrane potential (TMRE) (T cells [9]): causes mitochondrial hyperpolarization

N#CC(C#N)=NNc1ccc(OC(F)(F)F)cc1 [FCCP, reference compound]
mitochondrial membrane potential (TMRE) (T cells [9]): decouples membrane potential in both control and D-2HG treated conditions
